Experiment [1] concerns RAW264.7 mouse macrophage cell line. The experiment is described as follows: MTT assay cytotoxicity. It is filed as cell-based. The conditions noted are these: RAW264.7, 24 hours. The procedure: (§1) HaCaT human epidermal keratinocytes, # ATCC PCS-200-011) were incubated using Dulbecco's modified Eagle's medium (DMEM, # DMEM-HPA, Capricorn Scientific, Ebsdorfergrund, Germany) in the conditions of 37° C. and 5% CO2. NIH3T3 mouse embryo fibroblasts (# KCLB 21658), RAW264.7 murine macrophages (preosteoclast cell line, # KCLB 40071), HCT116 human colon cancer cells (# KCLB 10247), PC3 human prostate adenocarcinoma cells (# KCLB 21435), HT1080 human fibrosarcoma cells (# KCLB 1121), and B16F10 mouse malignant melanoma cells (# KCLB 80008) were purchased from the Korean Cell Line Bank, and incubated using DMEM in the conditions of 37° C. and 5% C02.
(§2) The compound isolated from Osmunda japonica, prepared in section 1 of <Example 1>, was investigated for cytotoxicity using MTT assay.
(§3) MTT assay was as follows.
(§4) Cells were incubated at 1×10^3 cells/well in a 96-well plate containing DMEM with 10% fetal bovine serum (FBS) at 5% CO2 and 37° C., and then osmundacetone was added to the cell medium, followed by incubation for 24 hours. Thereafter, 100 μL of MTT (0.5 mg/ml PBS) was administered, followed by incubation for 2 hours. Thereafter, the medium was removed from each well, and 100 μL of DMSO was added. After incubation for 10 minutes, the absorbance was measured using a microplate reader (SPCTRA MAX 340PC, Molecular Devices, USA) at 570 nm. The absorbance is an indicator showing the number of living cells, and calculated by the following equation. The reproducibility thereof was validated by three experiments.
(§5) Cell proliferation (%)=OD550(sample)/OD550(control)
For orientation: Tetrazolium assays rely on reduction of a dye to a coloured formazan, in cell work by metabolically active cells.

The subject of experiment [2] is PC3 human prostate adenocarcinoma. The experiment is described as follows: MTT assay cytotoxicity. It is filed as cell-based. The conditions noted are these: PC3, 24 hours. The procedure:
as §1, §2, §3, §4, §5

Experiment [3] deals with HaCaT human epidermal keratinocytes. The experiment is described as follows: MTT assay cytotoxicity. Type of experiment: cell-based. The conditions noted are these: 24 hours, read-out: IC50 according to MTT assay. How it is done: as §1, §2, §3, §4, §5
The test system of experiment [4] is osteoclasts co-incubated with MC3T3-E1 cells. The experiment is described as follows: Co-culture of osteoclasts and osteoblasts: osteoclast proliferation and differentiation. It is filed as cell-based, mouse. The conditions noted are these: 10 μM. The procedure: 1×10^5 C57BL/6 mouse bone marrow mononuclear cells per well of a 48-well plate were prepared in the same manner as described above, and co-incubated together with 1.5×10^4 MC3T3-E1 murine osteoblasts, using 500 μL of α-MEM containing 10% FBS and 1% antibiotic (100 U/mL penicillin G and […] streptomycin) in the conditions of 37° C. and 5% CO2 while the medium was exchanged every three days.
Positive control cells were co-incubated together with osteoclast differentiation factors M-CSF (60 ng/mL) and RANKL (150 ng/mL), and osteoblast differentiation factors ascorbic acid (50 μg/mL) and 10 mM R-glycerophosphate.
Negative control cells were incubated by adding only M-CSF as a differentiation factor. In order to examine effects of osmundacetone on the differentiation of osteoclasts and osteoblasts, osmundacetone were administered at a final concentration of 10 μM into the positive control cells on day 1 after the cells were dispensed on the plate.
In order to investigate whether or not osmundacetone has ability to inhibit osteoclast differentiation and activate osteoblast differentiation simultaneously, bone marrow mononuclear cells collected from C57BL/6 mice and MC3T3-E1 cells as osteoblast precursor cells were co-incubated in a 48-well plate at cell concentrations of 1×10^5 bone marrow cells and 3×10^3 MC3T3-E1 cells per well. […]

Experiment [5] concerns OCN in MC3T3-E1 cells. Kind of experiment: Western blot, OCN production by osteoblasts. Type of experiment: cell-based, mouse. The conditions noted are these: 50 μM. The procedure:
In order to analyze the expression of osteoblast differentiation markers during a differentiation procedure, 3×10^5 MC3T3-E1 cells were dispensed in a 100 mm culture plate together with 10 mL of complete α-MEM containing ascorbic acid (50 μg/mL) and 10 mM R-glycerophosphate per well. Here, 50 μM osmundacetone was added or not added, and the cells were incubated at 37 […] in a 5% CO2 incubator for 21 days while the medium was exchanged every 3-4 days.
The negative control cells were cultured without differentiation factors, and the osteoblasts and a culture thereof were dispensed, and then collected on day 7, 14, or 21.
The cells were lysed using RIPA buffer, and then the expression of runt-related transcription factor 2 (RUNX2) was analyzed. Also for analysis of OCN secretion, the culture was collected, and normalized by cellular DNA.
Proteins were analyzed using SDS-PAGE on 12.5% […] gels, and transferred on polyvinylidene difluoride (PVDF) membrane through electrophoresis.
The membrane was blocked using non-fat milk, and examined using anti-RUNX2 (D1H7) rabbit monoclonal antibody (#8486, Cell Signaling Technology, MA, USA) or anti-OCN (FL-95) antibody (# sc-30045, Santa Cruz Biotechnology, TX, USA). Anti-actin antibody (# M177-3, MEDICAL & BIOLOGICAL LABORATORIES CO., LTD., Nagoya, Aichi, Japan) was used as an internal reference. […]

Experiment [6] has as its system ADMSC human Adipose-derived mesenchymal stem cells. Kind of experiment: MTT assay cytotoxicity. Type of experiment: cell-based. The conditions noted are these: 24 hours, read-out: IC50 according to MTT assay. The procedure:
Human adipose-derived mesenchymal stem cells, ADMSCs (CEFO Bio, Seoul, Korea), were incubated using CB-ADMSC-GM (CEFO Bio, Seoul, Korea) in the conditions of 37° C. and 5% CO2.
as §2, §3, §4, §5

The test system of experiment [7] is ALP activity in MC3T3-E1. The experiment is described as follows: Measurement of ALP activity in MC3T3-E1. It is filed as cell-based, mouse. The conditions noted are these: MC3T3-E1, day 14, mean±s.d. How it is done:
ALP activity was assessed using Quantichrom ALP Assay Kit (Bioassay Systems, Hayward, Calif., USA) according to manufacturer's instructions.
Briefly, 3×10^3 MC3T3-E1 cells were dispensed in a 96-well plate together with […] of complete α-MEM containing ascorbic acid (50 μg/mL) and 10 mM β-glycerophosphate per well. Here, osmundacetone (10 μM and 50 μM) was added or not added, and the medium was exchanged every 3-4 days.
On day 14 of the incubation, the colorimetric change due to ALP activity in the cell fraction was measured using a spectrophotometer plate reader (Molecular Devices, Sunnyvale, Calif., USA) at 405 nm (Kim et al., 2016). The % activation of ALP activity was shown by comparing ALP activity of cells treated with an experimental compound and ALP activity of the non-treated control cells.

Several values for one entry are separate records, joined by “and”; a condition that tells them apart may be missing. Identical values can stand only once.

The term IC50 denotes the concentration at which inhibition is half-maximal.

In the case of `CC(=O)/C=C/c1ccc(O)c(O)c1` [Osmundacetone, (3E)-4-(3,4-dihydroxyphenyl)-3-buten-2-one], the “LD50 (MTT assay)” value in experiment [1] is 507 ± 98 µM; in experiment [2] it was 65.5 ± 8.7 µM. The IC50 worked out at 3.51 ± 0.11 mM in experiment [3] and 2.76 mM in experiment [6]. For the same compound, in experiment [4], the “proliferation and differentiation of osteoclasts in co-incubation” value is “completely inhibited”. Further, the “mature osteoclasts in co-incubation” value in experiment [4] (day 6 after administration) was “completely disappeared”. For the same compound, the results for the “OCN production by osteoblasts, increase compared with non-treated positive control cells” value in experiment [5] (day 14) and in experiment [5] (day 21) were 2.9 times and 1.2 times, respectively. Besides, the “% Activation of ALP activity” value is 115 ± 9.4% in experiment [7] (10 μM); 279 ± 61 % in experiment [7] (50 μM); 279±61% and 280% in experiment [7] (50 μM, listed as osmundacetone).
